# Reference: PubChem BioAssay AID2060498 (Molecular Pharmacology Branch, DTP, NCI, 2025)
# Tested on: 171881-019-R-J1-PDC tumor spheroids, viability
# Assay: Anticancer human tumor 171881-019-R-J1-PDC patient-derived invasive breast carcinoma cell line growth inhibition [GQUAD]
# Details: spheroids with HUVEC and MSC; for IC50: curve of first compound; for viability, T/C: stronger effect = lower value
# Text: DNA G-quadruplex Stabilizer Agents in Combinations in Complex Spheroids
# A high-throughput screen of multi-cell type tumor spheroids was designed to identify active combinations of DNA G-quadruplex stabilizer agents and targeted small molecules. Complex spheroids include a stromal component modeled by human endothelial cells (HUVEC) and fibroblasts modeled by human mesenchymal stem cells (MSCs). The concentration ranges selected for each drug and investigational agent were based upon clinically achievable concentrations if the clinical Cmax of the agent was known.
# Compounds. The drugs and investigational agents: pidnarulex (CX-5461; NSC782164), APTO-253 (NSC789042), BRACO-19 (NSC847499), peposertib (NSC802822), ceralasertib (NSC780249), elimusertib (NSC800525), camonsertib (NSC841442), AZD-1390 (NSC803789), olaparib (NSC753686), talazoparib (NSC767125), ART-558 (NSC835418), sotorasib (NSC818433), MRTX-1133 (NSC836407), SN-38 (NSC673596), topotecan (NSC609699), etoposide (NSC141540), doxorubicin (NSC123127), gemcitabine (NSC613327), 5-fluorouracil (NSC19893), paclitaxel (NSC125973), vemurafenib (NSC761431), panobinostat (NSC761190), R-306465 (JNJ-16241199; NSC773264), adavosertib (NSC754352), TP-3654 (NSC805149), carboplatin (NSC241240), KSQ-4279 (NSC840948), and staurosporine (NSC755774) were obtained from the National Cancer Institute (NCI) Developmental Therapeutics Program Chemical Repository (34). The FDA-approved anticancer drug set is available from the NCI Developmental Therapeutics Program. […] The stock solutions were prepared in dimethyl sulfoxide (DMSO, Sigma-Aldrich, St. Louis, MO, cat. D2650) at 800-fold the tested concentration and stored at -70 degrees C prior to their use. All drugs and investigational agents were tested over a range starting from a high concentration at or near the clinical Cmax and decreasing in half-log increments. If the clinical Cmax for an agent had not been determined, the highest concentration tested was 10 microM.
# 2.3 Cell Culture. All cells were maintained in an incubator at 37 degrees C and 5% CO2 with 95% humidity. The PDC lines were cultured according to standard operating procedures established by the NCI PDMR. All PDCs were thawed and cultured in Matrigel-coated flasks prepared with a working solution of 1X Ham's F-12 nutrient mix, without supplementation (Invitrogen, cat. 11765054), 100 U/mL penicillin-streptomycin (Invitrogen, cat. 15140122), and 2.5% Matrigel (Corning Inc., cat. 354248) for the first three passages. The 857933-349-R-J2-PDC line was cultured in 6C/Colon 1B media, which includes advanced DMEM/F-12 (Thermo Fisher Scientific, cat. 12634028), 10 mM HEPES (Thermo Fisher Scientific, cat. 15630080), 1X GlutaMAX supplement (Thermo Fisher Scientific, cat. 35050061), 0.1 mg/mL primocin (InvivoGen, cat. ant-pm-2), 10% defined fetal bovine serum, heat inactivated (HyClone Laboratories Inc., cat. SH30070.03HI), 50% L-WRN conditioned media (ATCC, cat. CRL-3276), 1.25 mM N-Acetyl-L-cysteine (Sigma-Aldrich, cat. A9165), 10 mM nicotinamide (Sigma-Aldrich, cat. N0636), 1X B-27 supplement (Thermo Fisher Scientific, cat. 17504044), 1X N-2 supplement (Thermo Fisher Scientific, cat. 17502048), 10 microM Y-27632 dihydrochloride (Tocris Bioscience, cat. 1254), and 50 ng/mL human EGF recombinant protein (Thermo Fisher Scientific, cat. PHG0311). The 485176-168-R4-J1-PDC line was cultured in Panc media, which includes all 6C/Colon 1B media components plus 100 ng/mL human FGF-10 (Thermo Fisher Scientific, cat. 100-26), 500 nM SB-431542 (Selleckchem, cat. S1067), and gastrin (Tocris, cat. 3006).
# […]
# [1] = second compound 0.0316 µM, first compound 0.0316 µM
# [2] = second compound 0.0316 µM, first compound 0.1 µM
# [3] = second compound 0.0316 µM, first compound 0.316 µM
# [4] = second compound 0.0316 µM, first compound 1 µM
# [5] = second compound 0.0316 µM, first compound 3.16 µM
# [6] = second compound 0.0316 µM, first compound 10 µM
# [7] = second compound 0.1 µM, first compound 0.0316 µM
# [8] = second compound 0.1 µM, first compound 0.1 µM
# [9] = second compound 0.1 µM, first compound 0.316 µM
# [10] = second compound 0.1 µM, first compound 1 µM
# [11] = second compound 0.1 µM, first compound 3.16 µM
# [12] = second compound 0.1 µM, first compound 10 µM
# [13] = second compound 0.316 µM, first compound 0.0316 µM
# [14] = second compound 0.316 µM, first compound 0.1 µM
# [15] = second compound 0.316 µM, first compound 0.316 µM
# [16] = second compound 0.316 µM, first compound 1 µM
# [17] = second compound 0.316 µM, first compound 3.16 µM
# [18] = second compound 0.316 µM, first compound 10 µM
# [19] = second compound 1 µM, first compound 0.0316 µM
# [20] = second compound 1 µM, first compound 0.1 µM
# [21] = second compound 1 µM, first compound 0.316 µM
# [22] = second compound 1 µM, first compound 1 µM
# [23] = second compound 1 µM, first compound 3.16 µM
# [24] = second compound 1 µM, first compound 10 µM
# [25] = second compound 3.16 µM, first compound 0.0316 µM
# [26] = second compound 3.16 µM, first compound 0.1 µM
# [27] = second compound 3.16 µM, first compound 0.316 µM
# [28] = second compound 3.16 µM, first compound 1 µM
# [29] = second compound 3.16 µM, first compound 3.16 µM
# [30] = second compound 3.16 µM, first compound 10 µM
# [31] = second compound 10 µM, first compound 0.0316 µM
# [32] = second compound 10 µM, first compound 0.1 µM
# [33] = second compound 10 µM, first compound 0.316 µM
# [34] = second compound 10 µM, first compound 1 µM
# [35] = second compound 10 µM, first compound 3.16 µM
# [36] = second compound 10 µM, first compound 10 µM
# 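Further: spheroids exposed to compounds for 7 days.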
# 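Wherever viability, T/C is given: 100% = DMSO vehicle control viability.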
smiles,measurement,setting,value
O=C(NO)c1cnc(N2CCN(S(=O)(=O)c3ccc4ccccc4c3)CC2)nc1 + CN(C)c1ccc(Nc2c3ccc(NC(=O)CCN4CCCC4)cc3nc3cc(NC(=O)CCN4CCCC4)ccc23)cc1,IC50,second compound 0.0316 µM,197 nM
same,IC50,second compound 0.1 µM,215 nM
same,IC50,second compound 0.316 µM,< 31.6 nM
same,IC50,second compound 1 µM,< 31.6 nM
same,IC50,second compound 3.16 µM,< 31.6 nM
same,IC50,second compound 10 µM,< 31.6 nM
same,"viability, T/C",[1],101%
same,"viability, T/C",[2],73.7%
same,"viability, T/C",[3],35.6%
same,"viability, T/C",[4],0.61%
same,"viability, T/C",[5],0.11%
same,"viability, T/C",[6],0.11%
same,"viability, T/C",[7],86.7%
same,"viability, T/C",[8],80.1%
same,"viability, T/C",[9],34.8%
same,"viability, T/C",[10],0.74%
same,"viability, T/C",[11],0.22%
same,"viability, T/C",[12],0.38%
same,"viability, T/C",[13],44.2%
same,"viability, T/C",[14],37.8%
same,"viability, T/C",[15],10.6%
same,"viability, T/C",[16],0.25%
same,"viability, T/C",[17],0.08%
same,"viability, T/C",[18],0.21%
same,"viability, T/C",[19],3.24%
same,"viability, T/C",[20],1.83%
same,"viability, T/C",[21],0.75%
same,"viability, T/C",[22],0.1%
same,"viability, T/C",[23],0.06%
same,"viability, T/C",[24],0.31%
same,"viability, T/C",[25],0.23%
same,"viability, T/C",[26],0.4%
same,"viability, T/C",[27],0.28%
same,"viability, T/C",[28],0.06%
same,"viability, T/C",[29],0.08%
same,"viability, T/C",[30],0.1%
same,"viability, T/C",[31],0.07%
same,"viability, T/C",[32],0.12%
same,"viability, T/C",[33],0.38%
same,"viability, T/C",[34],0.34%
same,"viability, T/C",[35],0.29%
same,"viability, T/C",[36],0.15%
CC1COCCN1c1cc(-c2ccnn2C)c2ccnc(-c3ccn[nH]3)c2n1 (centres undefined) + Cc1[nH]c2ccc(F)cc2c1-c1nc2c3cccnc3c3ncccc3c2[nH]1,IC50,second compound 0.0316 µM,64.8 nM
same,IC50,second compound 0.1 µM,62.3 nM
same,IC50,second compound 0.316 µM,60.6 nM
same,IC50,second compound 1 µM,42.6 nM
same,IC50,second compound 3.16 µM,< 31.6 nM
same,IC50,second compound 10 µM,< 31.6 nM
same,"viability, T/C",[1],80%
same,"viability, T/C",[2],31.4%
same,"viability, T/C",[3],14.5%
same,"viability, T/C",[4],8.57%
same,"viability, T/C",[5],5.08%
same,"viability, T/C",[6],5.43%
same,"viability, T/C",[7],71.2%
same,"viability, T/C",[8],35.2%
same,"viability, T/C",[9],15.3%
same,"viability, T/C",[10],8.2%
same,"viability, T/C",[11],5.64%
same,"viability, T/C",[12],5.65%
same,"viability, T/C",[13],74%
same,"viability, T/C",[14],31%
same,"viability, T/C",[15],16.2%
same,"viability, T/C",[16],7.52%
same,"viability, T/C",[17],5.84%
same,"viability, T/C",[18],5.85%
same,"viability, T/C",[19],59%
same,"viability, T/C",[20],24.8%
same,"viability, T/C",[21],14.6%
same,"viability, T/C",[22],9.37%
same,"viability, T/C",[23],6.91%
same,"viability, T/C",[24],6.37%
same,"viability, T/C",[25],16.6%
same,"viability, T/C",[26],12.9%
same,"viability, T/C",[27],10.5%
same,"viability, T/C",[28],6.96%
same,"viability, T/C",[29],5.31%
same,"viability, T/C",[30],4.34%
same,"viability, T/C",[31],18%
same,"viability, T/C",[32],16.2%
same,"viability, T/C",[33],11.8%
same,"viability, T/C",[34],8.67%
same,"viability, T/C",[35],5.67%
same,"viability, T/C",[36],5.17%
